Results on 27 compounds are retold here after patent US9532990B2 (Zhejiang DTRM Biopharma Co. Ltd., priority 2014, dated 2017).

BTK wild type, sequence (Q06187 whole entry): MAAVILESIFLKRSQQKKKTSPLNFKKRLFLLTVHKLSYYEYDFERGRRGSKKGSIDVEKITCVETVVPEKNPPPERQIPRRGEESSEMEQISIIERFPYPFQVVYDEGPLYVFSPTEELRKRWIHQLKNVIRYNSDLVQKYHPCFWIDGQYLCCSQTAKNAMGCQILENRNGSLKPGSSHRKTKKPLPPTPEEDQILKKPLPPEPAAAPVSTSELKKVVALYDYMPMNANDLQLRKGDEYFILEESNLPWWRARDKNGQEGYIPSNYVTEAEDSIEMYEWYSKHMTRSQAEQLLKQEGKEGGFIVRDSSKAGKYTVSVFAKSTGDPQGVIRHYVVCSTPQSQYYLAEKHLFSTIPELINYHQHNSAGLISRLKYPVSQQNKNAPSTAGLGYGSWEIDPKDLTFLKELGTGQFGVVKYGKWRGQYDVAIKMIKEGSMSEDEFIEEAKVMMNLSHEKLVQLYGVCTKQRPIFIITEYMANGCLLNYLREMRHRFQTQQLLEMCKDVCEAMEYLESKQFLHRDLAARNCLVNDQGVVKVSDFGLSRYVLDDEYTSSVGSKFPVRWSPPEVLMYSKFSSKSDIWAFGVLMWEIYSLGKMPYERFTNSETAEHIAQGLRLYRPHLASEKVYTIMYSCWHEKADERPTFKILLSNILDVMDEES

The first test has as its target BTK wild type (Homo sapiens (Human), UniProt Q06187). The test can be described thus: Inhibition assay of BTK kinase activity (HTRF). Type of test: biochemical. The following applies: all compounds with IC50 of less 10 nM; read-out: IC50 (BTK). The method, then:
Inhibition Assay of BTK Kinase Activity:
The enzyme reaction mixture of BTK wild type standard HTRF assay contained 1 nM BTK wild type, 1 μM biotin-TK1 peptide, and 30 μM ATP in a buffer. The enzyme reaction were carried out at room temperature for 60 minutes. […] The plates were incubated at room temperature for 60 minutes and then read in the Envision plate reader.
Take `COC(=O)NC(=O)/C=C\C(=O)N1CCCC(n2nc(-c3ccc(Oc4c(F)c(F)cc(F)c4F)cc3F)c3c(N)ncnc32)C1` (stereo not shown) [Compound 47, (Z)-methyl 4-(3-(4-amino-3-(2-fluoro-4-(2,3,5,6-tetrafluorophenoxy)phenyl)-1H-pyrazolo[3,4-d]pyrimidin-1-yl)piperidin-1-yl)-4-oxobut-2-enoylcarbamate]: the IC50 was under 10 nM.

Still in this test, the particulars now being: read-out: BTK IC50.
On to `C=CC(=O)N[C@H]1CC[C@@H](n2nc(-c3ccc(Oc4c(F)c(F)cc(F)c4F)cc3F)c3c(N)ncnc32)CC1` [Compound 22, N-((1s,4s)-4-(4-amino-3-(2-fluoro-4-(2,3,5,6-tetrafluorophenoxy)phenyl)-1H-pyrazolo[3,4-d]pyrimidin-1-yl)cyclohexyl)acrylamide], for which the IC50 is 50 nM.
Regarding `C=CC(=O)N1CCC(n2nc3c4c(ncnc42)Nc2cc(Oc4c(F)c(F)cc(F)c4F)ccc2-3)C1` (stereo not shown) [Compound 24], the IC50 is 1020 nM.
The same measure, in the same setting: with `C=CC(=O)N[C@@H]1CC[C@@H](n2nc(-c3ccc(Oc4c(F)c(F)cc(F)c4F)cc3F)c3c(N)ncnc32)C1` [Compound 25, N-((1r,3r)-3-(4-amino-3-(2-fluoro-4-(2,3,5,6-tetrafluorophenoxy)phenyl)-1H-pyrazolo[3,4-d]pyrimidin-1-yl)cyclopentyl)acrylamide] the figure was 17 nM; with `C=CC(=O)N[C@H]1CC[C@@H](n2nc(-c3ccc(Oc4c(F)c(F)cc(F)c4F)cc3F)c3c(N)ncnc32)C1` [Compound 26, N-((1s,3r)-3-(4-amino-3-(2-fluoro-4-(2,3,5,6-tetrafluorophenoxy)phenyl)-1H-pyrazolo[3,4-d]pyrimidin-1-yl)cyclopentyl)acrylamide], 34 nM; with `C=CC(=O)N1CCC(n2nc(-c3ccc(Oc4c(F)c(F)cc(F)c4F)cc3F)c3c(N)ncnc32)CC1` [Compound 27, 1-(4-(4-amino-3-(2-fluoro-4-(2,3,5,6-tetrafluorophenoxy)phenyl)-1H-pyrazolo[3,4-d]pyrimidin-1-yl)piperidin-1-yl)prop-2-en-1-one], 223 nM.
Regarding `C=CC(=O)NCC1CCC(n2nc(-c3ccc(Oc4c(F)c(F)cc(F)c4F)cc3F)c3c(N)ncnc32)C1` (stereo not shown) [Compound 28, N-((3-(4-amino-3-(2-fluoro-4-(2,3,5,6-tetrafluorophenoxy)phenyl)-1H-pyrazolo[3,4-d]pyrimidin-1-yl)cyclopentyl)methyl)acrylamide], the IC50 turned out to be 7 nM.
Take `C=CC(=O)N1CCC(Cn2nc(-c3ccc(Oc4c(F)c(F)cc(F)c4F)cc3F)c3c(N)ncnc32)C1` (stereo not shown) [Compound 29, 1-(3-((4-amino-3-(2-fluoro-4-(2,3,5,6-tetrafluorophenoxy)phenyl)-1H-pyrazolo[3,4-d]pyrimidin-1-yl)methyl)pyrrolidin-1-yl)prop-2-en-1-one]: the IC50 was 26 nM.
For `C=CC(=O)N1CCC(Cn2nc(-c3ccc(Oc4c(F)c(F)cc(F)c4F)cc3F)c3c(N)ncnc32)CC1` [Compound 30, 1-(4-((4-amino-3-(2-fluoro-4-(2,3,5,6-tetrafluorophenoxy)phenyl)-1H-pyrazolo[3,4-d]pyrimidin-1-yl)methyl)piperidin-1-yl)prop-2-en-1-one], the IC50 came to 24 nM.
Regarding `C=CC(=O)N1CCCC(Cn2nc(-c3ccc(Oc4c(F)c(F)cc(F)c4F)cc3F)c3c(N)ncnc32)C1` (stereo not shown) [Compound 31, 1-(3-((4-amino-3-(2-fluoro-4-(2,3,5,6-tetrafluorophenoxy)phenyl)-1H-pyrazolo[3,4-d]pyrimidin-1-yl)methyl)piperidin-1-yl)prop-2-en-1-one], the IC50 came to 15 nM.
Consider `C=CC(=O)NC1CCC(Cn2nc(-c3ccc(Oc4c(F)c(F)cc(F)c4F)cc3F)c3c(N)ncnc32)C1` (stereo not shown) [Compound 32, N-(3-((4-amino-3-(2-fluoro-4-(2,3,5,6-tetrafluorophenoxy)phenyl)-1H-pyrazolo[3,4-d]pyrimidin-1-yl)methyl)cyclopentyl)acrylamide], for which the IC50 amounted to 7220 nM.
With `C=CC(=O)N1CCC[C@H](n2nc(-c3ccc(Oc4c(F)c(F)cc(F)c4F)cc3F)c3c(N)ncnc32)C1` [Compound 34, 1-((S)-3-(4-amino-3-(2-fluoro-4-(2,3,5,6-tetrafluorophenoxy)phenyl)-1H-pyrazolo[3,4-d]pyrimidin-1-yl)piperidin-1-yl)prop-2-en-1-one], the IC50 was found to be 23 nM.
Take `Nc1ncnc2c1c(-c1ccc(Oc3c(F)c(F)cc(F)c3F)cc1F)nn2C1CCCC(N2C(=O)C=CC2=O)C1` (stereo not shown) [Compound 36, 1-(3-(4-amino-3-(2-fluoro-4-(2,3,5,6-tetrafluorophenoxy)phenyl)-1H-pyrazolo[3,4-d]pyrimidin-1-yl)cyclohexyl)-1H-pyrrole-2,5-dione]: the IC50 amounted to 593 nM.
On the same count and under the same terms, with `Nc1ncnc2c1c(-c1ccc(Oc3c(F)c(F)cc(F)c3F)cc1F)nn2[C@H]1CC[C@H](N2C(=O)C=CC2=O)C1` [Compound 37, 1-((1 S,3S)-3-(4-amino-3-(2-fluoro-4-(2,3,5,6-tetrafluorophenoxy)phenyl)-1H-pyrazolo[3,4-d]pyrimidin-1-yl)cyclopentyl)-1H-pyrrole-2,5-dione] the figure was 99 nM; with `Nc1ncnc2c1c(-c1ccc(Oc3c(F)c(F)cc(F)c3F)cc1F)nn2CCCN1C(=O)C=CC1=O` [Compound 38, 1-(3-(4-amino-3-(2-fluoro-4-(2,3,5,6-tetrafluorophenoxy)phenyl)-1H-pyrazolo[3,4-d]pyrimidin-1-yl)propyl)-1H-pyrrole-2,5-dione], 379 nM.
As for `Nc1ncnc2c1c(-c1ccc(Oc3c(F)c(F)cc(F)c3F)cc1F)nn2C1CCC(N2C(=O)CSC2=O)CC1` (stereo not shown) [Compound 40, 3-(4-(4-amino-3-(2-fluoro-4-(2,3,5,6-tetrafluorophenoxy)phenyl)-1H-pyrazolo[3,4-d]pyrimidin-1-yl)cyclohexyl)thiazolidine-2,4-dione], the IC50 amounted to 1640 nM.
The same measure, in the same setting: as for `NC(=O)/C=C/C(=O)N1CCCC(n2nc(-c3ccc(Oc4c(F)c(F)cc(F)c4F)cc3F)c3c(N)ncnc32)C1` (stereo not shown) [Compound 41, (E)-4-(3-(4-amino-3-(2-fluoro-4-(2,3,5,6-tetrafluorophenoxy)phenyl)-1H-pyrazolo[3,4-d]pyrimidin-1-yl)piperidin-1-yl)-4-oxobut-2-enamide], the figure is 17 nM.
Regarding `CNC(=O)/C=C/C(=O)N1CCCC(n2nc(-c3ccc(Oc4c(F)c(F)cc(F)c4F)cc3F)c3c(N)ncnc32)C1` (stereo not shown) [Compound 42, (E)-4-(3-(4-amino-3-(2-fluoro-4-(2,3,5,6-tetrafluorophenoxy)phenyl)-1H-pyrazolo[3,4-d]pyrimidin-1-yl)piperidin-1-yl)-N-methyl-4-oxobut-2-enamide], the IC50 was found to be 38 nM.
With `N=C(N)NC(=O)N1CCCC(n2nc(-c3ccc(Oc4c(F)c(F)cc(F)c4F)cc3F)c3c(N)ncnc32)C1` (stereo not shown) [Compound 43, N-[3-[4-amino-3-[2-fluoro-4-(2,3,5,6-trifluorophenoxy)phenyl]-1H-pyrazolo[3,4-d]pyrimidin-1-yl]piperidine-1-carbonyl] formamidine], the IC50 was found to be 131 nM.
In the case of `CC(=O)CC(=O)N1CCCC(n2nc(-c3ccc(Oc4c(F)c(F)cc(F)c4F)cc3F)c3c(N)ncnc32)C1` (stereo not shown) [Compound 44, 1-(3-(4-amino-3-(2-fluoro-4-(2,3,5,6-tetrafluorophenoxy)phenyl)-1H-pyrazolo[3,4-d]pyrimidin-1-yl)piperidin-1-yl)butane-1,3-dione], the IC50 was 374 nM.
On the same count and under the same terms, with `COC(=O)NC(=O)/C=C\C(=O)N1CCCC(n2nc(-c3ccc(Oc4c(F)c(F)cc(F)c4F)cc3F)c3c(N)ncnc32)C1` (stereo not shown) [Compound 47, (Z)-methyl 4-(3-(4-amino-3-(2-fluoro-4-(2,3,5,6-tetrafluorophenoxy)phenyl)-1H-pyrazolo[3,4-d]pyrimidin-1-yl)piperidin-1-yl)-4-oxobut-2-enoylcarbamate] the figure was 6 nM.
`C/C=C(\C(=O)OC)C(=O)N1CCCC(n2nc(-c3ccc(Oc4c(F)c(F)cc(F)c4F)cc3F)c3c(N)ncnc32)C1` (stereo not shown) [Compound 48, (Z)-methyl 2-(3-(4-amino-3-(2-fluoro-4-(2,3,5,6-tetrafluorophenoxy)phenyl)-1H-pyrazolo[3,4-d]pyrimidin-1-yl)piperidine-1-carbonyl)but-2-enoate]: the IC50 came to 964 nM.
Turning to `C=C(C#N)C(=O)N1CCCC(n2nc(-c3ccc(Oc4c(F)c(F)cc(F)c4F)cc3F)c3c(N)ncnc32)C1` (stereo not shown) [Compound 49, 2-(3-(4-amino-3-(2-fluoro-4-(2,3,5,6-tetrafluorophenoxy)phenyl)-1H-pyrazolo[3,4-d]pyrimidin-1-yl)piperidine-1-carbonyl)acrylonitrile], the IC50 was determined as 509 nM.
The same measure, in the same setting: with `C=C(CO)C(=O)N1CCCC(n2nc(-c3ccc(Oc4c(F)c(F)cc(F)c4F)cc3F)c3c(N)ncnc32)C1` (stereo not shown) [Compound 50, 1-(3-(4-amino-3-(2-fluoro-4-(2,3,5,6-tetrafluorophenoxy)phenyl)-1H-pyrazolo[3,4-d]pyrimidin-1-yl)piperidin-1-yl)-2-(hydroxymethyl)prop-2-en-1-one] the figure was 87 nM; with `Nc1ncnc2c1c(-c1ccc(Oc3c(F)c(F)cc(F)c3F)cc1F)nn2CCN1C(=O)C=CC1=O` [Compound 51, 1-(2-(4-amino-3-(2-fluoro-4-(2,3,5,6-tetrafluorophenoxy)phenyl)-1H-pyrazolo[3,4-d]pyrimidin-1-yl)ethyl)-1H-pyrrole-2,5-dione], 527 nM.
The same measure, in the same setting: as for `CNC(=O)N1CCCC(n2nc(-c3ccc(Oc4c(F)c(F)cc(F)c4F)cc3F)c3c(N)ncnc32)C1` (stereo not shown) [Compound 52, 3-(4-amino-3-(2-fluoro-4-(2,3,5,6-tetrafluorophenoxy)phenyl)-1H-pyrazolo[3,4-d]pyrimidin-1-yl)-N-methylpiperidine-1-carboxamide], the figure is 60 nM; as for `CN/C(=N\C#N)N1CCCC(n2nc(-c3ccc(Oc4c(F)c(F)cc(F)c4F)cc3F)c3c(N)ncnc32)C1` (stereo not shown) [Compound 54, 3-[4-amino-3-[2-fluoro-4-(2,3,5,6-fluorophenoxy)phenyl]-1H-pyrazolo[3,4-d]pyrimidine-1-yl]-N′-cyano-N-methyl-piperidine-1-carboxamidine], 1620 nM; as for `CN/C(=C\[N+](=O)[O-])N1CCCC(n2nc(-c3ccc(Oc4c(F)c(F)cc(F)c4F)cc3F)c3c(N)ncnc32)C1` (stereo not shown) [Compound 55, 1-[3-[4-amino-3-[2-fluoro-4-(2,3,5,6-three-fluorophenoxy)phenyl]-1H-pyrazolo[3,4-d]pyrimidin-1-yl]-1-piperidinyl]-1-(methylamino)-2-nitro ethylene], 1740 nM.
